Experimental findings from patent US20250368648A1, “MULTI-CYCLIC IRAK AND FLT3 INHIBITING COMPOUNDS AND USES THEREOF” (CHILDREN'S HOSPITAL MEDICAL CENTER, priority 2022, published 2025) are described below.

The term IC50 denotes the concentration that inhibits the measured activity by half. The low end stands for greater potency in that assay, the high end for weaker potency in that assay.

SMILES strings stand for the structures. Some results are limits rather than exact numbers.

For the test, the target named is T1, FLT3 (Homo sapiens, UniProt P36888).
T1 sequence (P36888 27-993): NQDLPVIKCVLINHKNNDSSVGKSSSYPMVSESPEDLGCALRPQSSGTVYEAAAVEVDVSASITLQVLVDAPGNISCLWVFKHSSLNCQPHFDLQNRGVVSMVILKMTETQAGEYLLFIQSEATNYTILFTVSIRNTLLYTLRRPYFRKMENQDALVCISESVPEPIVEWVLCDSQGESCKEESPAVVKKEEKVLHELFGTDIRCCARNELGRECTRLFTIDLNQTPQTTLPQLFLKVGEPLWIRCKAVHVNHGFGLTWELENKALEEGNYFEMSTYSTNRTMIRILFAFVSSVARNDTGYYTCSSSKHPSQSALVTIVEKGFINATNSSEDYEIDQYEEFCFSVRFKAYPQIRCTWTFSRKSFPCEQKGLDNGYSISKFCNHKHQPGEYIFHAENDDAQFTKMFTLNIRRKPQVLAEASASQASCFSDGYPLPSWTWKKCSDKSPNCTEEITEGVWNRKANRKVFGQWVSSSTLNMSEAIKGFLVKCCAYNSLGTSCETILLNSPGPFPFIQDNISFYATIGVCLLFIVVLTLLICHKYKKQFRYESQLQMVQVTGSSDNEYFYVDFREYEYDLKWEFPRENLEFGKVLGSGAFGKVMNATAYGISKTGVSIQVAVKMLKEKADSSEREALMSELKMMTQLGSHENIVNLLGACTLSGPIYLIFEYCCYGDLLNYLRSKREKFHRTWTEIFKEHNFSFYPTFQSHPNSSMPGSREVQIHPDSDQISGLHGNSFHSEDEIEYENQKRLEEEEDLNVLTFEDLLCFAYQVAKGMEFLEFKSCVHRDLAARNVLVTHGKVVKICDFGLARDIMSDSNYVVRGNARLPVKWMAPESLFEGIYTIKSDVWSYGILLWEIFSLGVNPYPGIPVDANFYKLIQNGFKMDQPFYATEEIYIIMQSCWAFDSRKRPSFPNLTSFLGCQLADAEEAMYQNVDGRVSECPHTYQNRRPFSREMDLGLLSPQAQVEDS
The test is described as follows: RBC HotSpot Kinase Assay, FLT3. The format is biochemical. Details: purchased RBC (Reaction Biology) HotSpot assay. Particulars: HotSpot functional assay, isolated kinase enzyme, 33P-ATP. The method, boiled down:
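Isolated kinases, possibly truncated or lacking regulatory receptor regions, were preincubated with compound for 20 min at room temp in 20 mM Hepes pH 7.5, 10 mM MgCl2, 1 mM EGTA, 2 mM DTT, 1% DMSO. Reactions were started with ^33P-ATP and run 2 h at room temperature; activity was read by P81 filter binding.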
As for `COc1cc2ncc(-c3nc(N[C@H]4CNCC[C@@H]4F)c(F)cc3F)n2nc1C(C)(O)C(F)(F)F` (single isomer, unassigned) [Compound 77a], the concentration for half-maximal inhibition (IC50) was < 0.5 nM.

`COc1cc2ncc(-c3nc(N[C@@H]4CCCNC4)c(F)cc3F)n2nc1C(C)(O)C(F)(F)F` (single isomer, unassigned) [Compound 81a]: the IC50 is < 0.5 nM.

As for `COc1cc2ncc(-c3nc(N[C@H]4CNCC[C@@H]4F)c(F)cc3F)n2nc1C1CCC1` [Compound 15a, 6-(6-cyclobutyl-7-methoxyimidazo[1,2-b]pyridazin-3-yl)-3,5-difluoro-N-((3S,4S)-4-fluoropiperidin-3-yl)pyridin-2-amine], the half-inhibitory concentration (IC50) was < 0.5 nM.

As to `COc1cc2ncc(-c3nc(N[C@H]4CNC[C@@H]4F)c(F)cc3F)n2nc1C1CC2(CCC2)C1` [Compound 12a, 3,5-difluoro-N-((3S,4S)-4-fluoropyrrolidin-3-yl)-6-(7-methoxy-6-(spiro[3.3]heptan-2-yl)imidazo[1,2-b]pyridazin-3-yl)pyridin-2-amine], the half-inhibitory concentration (IC50) was < 0.5 nM.

In the case of `COc1cc2ncc(-c3nc(N[C@H]4CNCC[C@@H]4F)c(F)cc3F)n2nc1C12CC(C1)C2` [Compound 67a, 6-(6-(bicyclo[1.1.1]pentan-1-yl)-7-methoxyimidazo[1,2-b]pyridazin-3-yl)-3,5-difluoro-N-((3S,4S)-4-fluoropiperidin-3-yl)pyridin-2-amine], the IC50 is < 0.5 nM.

As for `COc1cc2ncc(-c3nc(N[C@H]4CNCC[C@@H]4F)c(F)cc3F)n2nc1C1CC2(CCC2)C1` [Compound 10a, 3,5-difluoro-N-((3S,4S)-4-fluoropiperidin-3-yl)-6-(7-methoxy-6-(spiro[3.3]heptan-2-yl)imidazo[1,2-b]pyridazin-3-yl)pyridin-2-amine], the concentration for half-maximal inhibition (IC50) was < 0.5 nM.

For the molecule `COc1cc2ncc(-c3nc(N[C@H]4CNC[C@@H]4F)c(F)cc3F)n2nc1C(C)(O)C(F)(F)F` (single isomer, unassigned) [Compound 80a], the concentration for half-maximal inhibition (IC50) was < 0.5 nM.
